Counter-ions that a name gives are not always drawn. Blank lines part the entries; values can stand above or below the compound they belong to.
What was measured:
conscious SHR = assay: Assay XIII: antihypertensive experiments in conscious SHR (renal denervation, bulbocapnine); type: in vivo, rat; conditions: bulbocapnine alone
Method: For antihypertensive experiments, male SHR (11-13 weeks of age; Harlan Sprague-Dawley, Inc.; Indianapolis, Ind.) were habituated for 3-4 days in individual experimental cages, which became their home cages for the duration of the study. Five to seven days before experimentation, SHR were anesthetized with chloral hydrate (400 mg/kg; Sigma Chemical Co., St. Louis, Mo.) and catheters were implanted into a femoral artery and vein. The catheters were led to the back of the neck, exteriorized, and channeled through a tether and swivel system (Alice King Chatham, Los Angeles, Calif.). Surgical renal denervation was performed as above. […] In separate groups of conscious SHR, Ex. #859 (5 mg/kg/hr, n=6) was infused alone, Ex. #859 (5 mg/kg/hr, n=6) was coinfused with bulbocapnine (100 μg/kg/min), or Ex. #859 (10 mg/kg/hr, n=6) was infused 5-7 days after surgical renal denervation. Surgical renal denervation was performed as described above. After a one hour control measure of mean arterial pressure, compounds were infused for four hours and mean arterial pressure was measured continuously.

Sprague-Dawley rats = assay: Assay I: acute in vivo effects on mean arterial pressure and renal blood flow, anesthetized rats; set-up: species or system rat; conditions: for MAP / RBF: 100 mg/kg i.v.
Method: Sprague-Dawley rats were anesthetized with inactin (100 mg/kg, i.p.) and catheters were implanted into a carotid artery for measurement of mean arterial pressure (Gould model 3800 chart recorder; Statham pressure transducer model no. P23DB) and into a jugular vein for compound administrations (i.v.). In addition, a flow probe was implanted around the left renal artery for measurement of renal blood flow using Carolina Medical Electronics flow probes. Rats were allowed 60 min to stabilize before 10 minutes of control recordings of mean arterial pressure and renal blood flow were obtained. Control measurements were followed by intravenous injection of Ex. #3 conjugate and saline vehicle.

[1] = system: spontaneously hypertensive rats; assay: Assay II: chronic i.v. infusion, mean arterial pressure in spontaneously hypertensive rats (Ex. #3); type: in vivo, rat; conditions: SHR, continuous infusion 5 mg/hr
Method: (§1) The Ex. #3 conjugate and saline vehicle were infused continuously for four days in spontaneously hypertensive rats. Mean arterial pressure was measured (Gould Chart Recorder, model 3800; Statham P23Db pressure transducer) via an indwelling femoral artery catheter between 10:00 a.m. and 2:00 p.m. each day. The Ex. #3 conjugate was infused at 5 mg/hr and the saline vehicle was infused at 300 μL,/hr. via a jugular vein catheter with a Harvard infusion pump.

[2] = system: spontaneously hypertensive rats; assay: Assay III: chronic i.v. infusion, mean arterial pressure in spontaneously hypertensive rats (Ex. #464); type: in vivo, rat; conditions: SHR; for MAP: continuous infusion 10 mg/hr
Method: as §1, with “#464” for “#3”, “10” for “5”, “μL/hr.” for “μL,/hr. via a jugular vein catheter with a Harvard infusion pump.”

[3] = target: T1, dopamine beta-hydroxylase (DBH; EC 1.14.17.1) (Bos taurus, UniProt P15101); assay: Assay V: in vitro DBH inhibition (norepinephrine production, HPLC); type: biochemical, bovine; conditions: for inhibition at 20 µM: test compound 20 μM, read-out: % Inhibition of DBH
T1 construct: DBH, purified from bovine adrenals (Sigma); purchased Sigma; host or cells: bovine adrenals (tissue-purified)
T1 sequence (P15101 1-610): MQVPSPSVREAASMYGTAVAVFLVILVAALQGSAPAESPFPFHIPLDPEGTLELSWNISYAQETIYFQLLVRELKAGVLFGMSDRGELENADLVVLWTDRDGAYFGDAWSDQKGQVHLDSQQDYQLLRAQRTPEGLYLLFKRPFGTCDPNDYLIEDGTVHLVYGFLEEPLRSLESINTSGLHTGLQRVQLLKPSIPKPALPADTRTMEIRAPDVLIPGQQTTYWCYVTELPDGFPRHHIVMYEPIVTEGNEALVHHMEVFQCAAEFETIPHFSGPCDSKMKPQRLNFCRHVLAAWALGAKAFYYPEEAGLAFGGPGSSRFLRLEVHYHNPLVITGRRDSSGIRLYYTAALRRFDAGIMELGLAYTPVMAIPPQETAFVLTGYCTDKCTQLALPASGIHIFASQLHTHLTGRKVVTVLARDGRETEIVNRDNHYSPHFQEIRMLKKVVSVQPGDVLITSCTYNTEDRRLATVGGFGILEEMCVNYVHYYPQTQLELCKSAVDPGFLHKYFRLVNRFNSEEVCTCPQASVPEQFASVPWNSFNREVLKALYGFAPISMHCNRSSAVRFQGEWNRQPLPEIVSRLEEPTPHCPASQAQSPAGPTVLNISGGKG
Method: In order to characterize the relative potency of the Ex. #859 conjugate and its various potential metabolites as inhibitors of dopamine beta-hydroxylase (DBH; EC 1.14.17.1), the enzyme activity was determined in vitro in the presence of these compounds. DBH, purified from bovine adrenals (Sigma) was incubated at 37° C. in buffer containing 20 mM dopamine as substrate. The reaction was stopped by addition of 0.5 M perchloric acid. The precipitate was removed and the product of the enzyme activity (norepinephrine), contained in the clear supernatant, was analyzed by HPLC. The chromatographic separation used a reversed phase C-18 column run isocratically with 0.2 M ammonium acetate (pH 5.2) as the mobile phase. The amount of norepinephrine produced by the enzyme-substrate mixture was analyzed by measuring the peak intensity (absorbance) at 280 nm for norepinephrine as it was eluted at 4.5 minutes, using a photo-diode array detector. The result of adding either fusaric acid or the Ex. #859 conjugate to the incubate at various concentrations is shown in Table XXIII and FIG. 6. […] Fusaric acid and Ex. #859 and two more possible metabolites (Ex #858 and fusaric acid hydrazide) were tested at 20 uM.

[4] = system: spontaneously hypertensive rats; assay: Assay IX: chronic 4 day i.v. infusion of Ex. #861 and #863, mean arterial pressure in SHR; type: in vivo, rat; conditions: for Blood Pressure (mean arterial pressure): 5 mg/hr i.v. infusion; for chronic effect on mean arterial pressure: SHR, 4 day infusion at 5 mg/hr
Method: The conjugates of Ex. #861 and #863 and saline vehicle were infused continuously for 4 days in spontaneously hypertensive rats. Mean arterial pressure was measured (Gould Chart Recorder, model 3800; Statham P23Db pressure transducer) via an indwelling femoral artery catheter between 10:00 a.m. and 2:00 p.m. each day. The Ex. #861 and Ex. #863 conjugates were infused at 5 mg/hr and the saline vehicle was infused at 100 μl/hr via a jugular vein catheter with a Harvard infusion pump. […] It is believed that at a higher dose of the Ex. #861 conjugate, blood pressure lowering effects would be observed.

[5] = system: spontaneously hypertensive rats; assay: Assay VI: acute in vivo effects on mean arterial pressure and renal blood flow in anesthetized SHR (i.v. or i.d.); set-up: species or system rat; conditions: for MAP / RBF: 100 mg/kg i.v.
Method: Spontaneously hypertensive rats were anesthetized with inactin (100 mg/kg, i.p.) and catheters were implanted into a carotid artery for measurement of mean arterial pressure (Gould model 3800 chart recorder; Statham pressure transducer model no. P23DB) and into a jugular vein for compound administrations (i.v. or i.d.). In addition, a flow probe was implanted around the left renal artery for measurement of renal blood flow using pulsed Doppler flowmetry. Rats were allowed 60 min to stabilize before 10 minutes of control recordings of mean arterial pressure and renal blood flow were obtained. Control measurements were followed by intravenous injection of 50 mg/kg of fusaric acid or the Ex. #859 conjugate. […] The Ex. #859 conjugate had no effect on mean arterial pressure at a dose of 100 mg/kg (n=4) during a 60 minute observation period. Renal blood flow (n=4) was unchanged 15 minutes after injection of the Ex. #859 conjugate but increased from 1.1 KHz (control period) to 3.5 KHz at 30 minutes postinjection.

[6] = system: Spontaneously Hypertensive Rats (SHR); assay: Assay VII: acute effects on arterial pressure in anesthetized SHR; type: in vivo, rat; conditions: i.v.: fusaric acid and fusaric acid hydrazide 100 mg/kg, Ex. #859 250 mg/kg
Method: Mean arterial pressure effects of fusaric acid hydrazide (100 mg/kg, i.v.), fusaric acid (100 mg/kg, i.v.) and Ex. #859 conjugate (250 mg/kg, i.v.) are shown in Table XXVII during a vehicle control period and 60 min post-injection of compound in anesthetized SHR. Rats were prepared as described above, minus the renal artery flow probe.

[7] = anesthetized SHR, Ex. #863 (Table XXVI)

- melting point: 156 to 158 °C
SMILES: CCCCc1ccc(C(=O)NCCNC(=O)CCC(NC(C)=O)C(=O)O)nc1 (as salt: salt) [Ex. #861, N^2-acetyl-N-[2-[[(5-butyl-2-pyridinyl)carbonyl]amino]ethyl]-L-glutamine]

SMILES: COc1ccc2c(c1O)-c1c3c(cc4c1[C@H](C2)N(C)CC4)OCO3 [Bulbocapnine, bulbocapnine, reference compound]
- Mean arterial pressure (conscious SHR; 0 hours): 160 ± 6
- Mean arterial pressure (conscious SHR; 1 hour): 156 ± 7
- Mean arterial pressure (conscious SHR; 2 hours): 161 ± 11
- Mean arterial pressure (conscious SHR; 3 hours): 159 ± 6
- Mean arterial pressure (conscious SHR; 4 hours): 157 ± 7
- effect on mean arterial pressure over the four hour period (conscious SHR; conscious SHR): no effect

SMILES: CC(=O)NC(CCC(=O)N[C@@](C)(Cc1ccc(O)cc1)C(=O)O)C(=O)O (stereo partly drawn) [Ex. #3, N-[4-(acetylamino)-4-carboxy-1-oxobutyl]-α-methyl-L-tyrosine]
- MAP (Sprague-Dawley rats; 15 min after injection): 77 ± 5 mm Hg
- RBF (Sprague-Dawley rats; 15 min after injection): 7.1 ± 0.1 mL/min
- MAP (Sprague-Dawley rats; 30 min after injection): 73 ± 4 mm Hg
- RBF (Sprague-Dawley rats; 30 min after injection): 6.2 ± 0.3 mL/min
- MAP (Sprague-Dawley rats; 45 min after injection): 70 ± 2 mm Hg
- RBF (Sprague-Dawley rats; 45 min after injection): 5.9 ± 0.1 mL/min
- MAP (Sprague-Dawley rats; 60 min after injection): 71 ± 6 mm Hg
- RBF (Sprague-Dawley rats; 60 min after injection): 5.9 ± 0.1 mL/min
- MAP (Sprague-Dawley rats; time after injection Zero min): 76 ± 5 mm Hg
- RBF (Sprague-Dawley rats; time after injection Zero min): 4.8 ± 0.8 mL/min
- acute effect on mean arterial pressure (MAP) (Sprague-Dawley rats; i.v. injection): no acute effects
- acute effect on renal blood flow (RBF) (Sprague-Dawley rats; i.v. injection): increased renal blood flow
- MAP ([1]; day 1): 175 ± 5 mm Hg
- MAP ([1]; day 2): 174 ± 5 mm Hg
- MAP ([1]; day 3): 172 ± 2 mm Hg
- MAP ([1]; day Zero): 164 ± 3 mm Hg

SMILES: CC(=O)NC(CCC(=O)N[C@@](C)(Cc1ccc(O)c(O)c1)C(=O)O)C(=O)O (stereo partly drawn) [Ex. #464, N-[4-(acetylamino)-4-carboxy-1-oxobutyl]-3-hydroxy-α-methyl-L-tyrosine]
- MAP ([2]; day 1): 169 ± 5 mm Hg
- MAP ([2]; day 2): 161 ± 4 mm Hg
- MAP ([2]; day 3): 163 ± 5 mm Hg
- MAP ([2]; day 4): 159 ± 8 mm Hg
- MAP ([2]; day Zero): 179 ± 6 mm Hg
- effect on mean arterial pressure over the four-day period ([2]; infusion 10 mg/hr): lowered significantly

- inhibition at 20 µM [3]: 0%
SMILES: CCCCc1ccc(C(=O)NNC(=O)CCC(N)C(=O)O)nc1 [Ex. #858, L-glutamic acid, 5-{[(5-butyl-2-pyridinyl)carbonyl]hydrazide}]

SMILES: CCCCc1ccc(C(=O)NCCNC(=O)CCC(NC(C)=O)C(=O)O)nc1 [Ex. #861, N^2-acetyl-N-[2-[[(5-butyl-2-pyridinyl)carbonyl]amino]ethyl]-L-glutamine]
- Blood Pressure (mean arterial pressure) ([4]; day 1): 173 ± 3
- Blood Pressure (mean arterial pressure) ([4]; day 2): 172 ± 4
- Blood Pressure (mean arterial pressure) ([4]; day 3): 172 ± 3
- Blood Pressure (mean arterial pressure) ([4]; day 4): 163 ± 9
- Blood Pressure (mean arterial pressure) ([4]; day zero): 177 ± 3
- chronic effect on mean arterial pressure [4]: did not change

SMILES: CCCCc1ccc(C(=O)N2CCN(C(=O)CCC(NC(C)=O)C(=O)O)CC2)nc1 (stereo not shown) [Ex. #863, 2-(acetylamino)-5-(4-[(5-butyl-2-pyridinyl)carbonyl]-1-piperazinyl]-5-oxopentanoic acid]
- Blood Pressure (mean arterial pressure) ([4]; day 1): 152 ± 6
- Blood Pressure (mean arterial pressure) ([4]; day 2): 146 ± 7
- Blood Pressure (mean arterial pressure) ([4]; day 3): 142 ± 7
- Blood Pressure (mean arterial pressure) ([4]; day 4): 154 ± 7
- Blood Pressure (mean arterial pressure) ([4]; day zero): 177 ± 5
- chronic effect on mean arterial pressure [4]: lowered mean arterial pressure
- MAP ([5]; 60 min): 147 ± 14 mm Hg
- RBF ([5]; 60 min): 4.3 ± 0.3 KHz
- MAP ([5]; time zero): 149 ± 14 mm Hg
- RBF ([5]; time zero): 1.6 ± 0.2 KHz
- effect on mean arterial pressure [5, 7]: no effect
- effect on renal blood flow [5, 7]: increased renal blood flow

- inhibition at 20 µM [3]: 13.8%
SMILES: CCCCc1ccc(C(=O)NN)nc1 [Fusaric Acid Hydrazide, 5-n-butylpicolinic acid hydrazide]
- inhibitory effect on dopamine-β-hydroxylase activity ([3]; tested at 20 uM): Only fusaric acid had significant inhibitory effects
- Mean arterial pressure ([6]; 60 MIN post-injection): 104 ± 13 mmHg
- Mean arterial pressure ([6]; ZERO (vehicle control period)): 159 ± 8 mmHg

From patent publication US20030220521A1, “Renal-selective prodrugs for control of renal sympathetic nerve activity in the treatment of hypertension” (G.D. Searle & Co., priority 1989, published 2003)
